Converted amounts (≈) assume the structure as drawn. Read-outs that look alike come from different tables or passages of the source.
Key:
Format in all cases: cell-based
[1] = test system: Trichophyton rubrum (ATCCMYA4607); assay: Antifungal activity test, minimum inhibitory concentration (MIC100); conditions: Sabouraud medium, 32° C. for 72 hours
Description: Trichophyton rubrum was cultured on a Sabouraud medium at 32° C. for 168 hours to form spores. Mycelia were peeled from a medium surface and collected into a tube, physiological saline solution (OTSUKA NORMAL SALINE; containing the equivalent of 9 g of sodium chloride in 1000 mL) was added thereto, and the entire mixture was mixed and dispersed with a disposable loop (Type 1 (1 μL)) to collect a spore suspension containing mycelia. The spore suspension containing mycelia was filtered through a cell strainer (+40 μm). Spores were collected from a filtrate by centrifugation (3500 rpm, 5 minutes), and washed twice with physiological saline to prepare a spore suspension (1×10^6 cells/mL). 10 μL of the spore suspension was inoculated into the Sabouraud medium to which the test compound dissolved in DMSO was added so as to have a predetermined concentration. Trichophyton rubrum was cultured at 32° C. for 72 hours, and then the presence or absence of the development of colonies was examined to determine a minimum inhibitory concentration (MIC100).
A minimum inhibitory concentration (MIC100) for Trichophyton rubrum (ATCCMYA4607) was determined in the same method as in Test Example 12 except that the hydrate crystal (Production Example 2) was used as the compound under test.

[2] = test system: Trichophyton rubrum (ATCCMYA4607); assay: Antifungal activity test, minimum fungicidal concentration (MFC100) on spores by treatment time; conditions: read-out: Minimal fungicidal concentration (MFC100)
Description: Trichophyton rubrum was cultured on a Sabouraud medium at 32° C. for 168 hours to form spores. Mycelia were peeled from a medium surface and collected into a tube, physiological saline solution (OTSUKA NORMAL SALINE; containing the equivalent of 9 g of sodium chloride in 1000 mL) was added thereto, and the entire mixture was mixed and dispersed with a disposable loop (Type 1 (1 μL)) to collect a spore suspension containing mycelia. The spore suspension containing mycelia was filtered through a cell strainer (+40 μm). Spores were collected from a filtrate by centrifugation (3500 rpm, 5 minutes), and washed twice with physiological saline to prepare a spore suspension (1×10^7 cells/mL). 10 μL of the spore suspension was inoculated into 90 μL of physiological saline solution to which the test compound dissolved in DMSO was added so as to have a predetermined concentration. Every time a predetermined time lapsed, 10 μL of a test solution containing spores was taken out. Spores were collected from the test solution thus taken out by centrifugation (3500 rpm, 5 minutes), and washed twice with physiological saline to prepare 10 μL of spore suspension. 10 μL of spore suspension was spotted on the Sabouraud medium and cultured at 32° C. for 72 hours, and then the presence or absence of the development of colonies was examined to determine a minimum fungicidal concentration (MFC100).
A minimum inhibitory concentration (MIC100) for Trichophyton rubrum (ATCCMYA4607) was determined in the same method as in Test Example 13 except that the hydrate crystal (Production Example 2) was used as the compound under test.

[3] = test system: Malassezia globosa (IFM 51946); assay: Antifungal activity test, minimum fungicidal concentration (MFC100); conditions: 1 minute contact, culture 32° C. for 72 hours, read-out: Minimal fungicidal concentration (MFC100)
Description: (§1) Fungi of Malassezia (Malassezia furfur, Malassezia sympodialis, and Malassezia globosa) that had been cultured on a CHROMagar (trademark) Malassezia/Candida raw medium (peptone, specialized enzyme-substrate mixture, chloramphenicol, olive oil, agar, manufactured by KANTO CHEMICAL CO., INC.) for 5 to 7 days was suspended in physiological saline to prepare so as to have an absorbance of 0.025 at 600 nm. The compound under test dissolved in DMSO was added thereto so as to have final concentrations of 200, 100, 50, and 25 ppm. 1 minute later, 10 μL of suspension and 10 mL of physiological saline were added to a syringe and stirred, and then the mixture was filtered by connecting to a 37 mm quality monitor (manufactured by Pall Corporation) and washed twice with 10 ml of physiological saline. The membrane filters were removed from the quality monitor, and placed and cultured on the CHROMagar (trademark) Malassezia/Candida raw medium at 32° C. for 72 hours, and the presence or absence of the development of colonies was examined to determine a minimum fungicidal concentration (MFC100). Minimum fungicidal concentrations (MFC100) for Malassezia furfur (IFM 55951), Malassezia sympodialis (IFM 48588), and Malassezia globosa (IFM 51946) were determined in the same method as in Test Example 10 except that the hydrate crystal (Production Example 2) was used as the compound under test.

[4] = test system: Malassezia sympodialis (IFM 48588); assay: as above; conditions: 1 minute contact, culture 32° C. for 72 hours, read-out: Minimal fungicidal concentration (MFC100)
Description: as §1

[5] = test system: Malassezia furfur (IFM 55951); assay: as above; conditions: 1 minute contact, culture 32° C. for 72 hours, read-out: Minimal fungicidal concentration (MFC100)
Description: as §1

[6] = test system: Malassezia restricta (IFM55992); assay: as above; conditions: 1 minute contact, MLNA medium 32° C. for 72 hours, read-out: Minimal fungicidal concentration (MFC100)
Description: A fungus of Malassezia (Malassezia restricta) that had been cultured on a CHROMagar (trademark) Malassezia/Candida raw medium (peptone, specialized enzyme-substrate mixture, chloramphenicol, olive oil, agar, manufactured by KANTO CHEMICAL CO., INC.) for 5 to 7 days was suspended in physiological saline to prepare so as to have an absorbance of 0.025 at 600 nm. The compound under test dissolved in DMSO was added thereto so as to have final concentrations of 200, 100, 50, and 25 ppm. 1 minute later, 10 μL of suspension and 10 mL of physiological saline were added to a syringe and stirred, and then the mixture was filtered by connecting to a 37 mm quality monitor (manufactured by Pall Corporation) and washed twice with 10 ml of physiological saline. The membrane filters were removed from the quality monitor, and placed and cultured on a Leeming & Notman agar Modified medium (MLNA medium) (peptone, glucose, yeast extract, dried bovine bile, glycerol, glycerin stearate, Tween 60, olive oil, agar) at 32° C. for 72 hours, and the presence or absence of the development of colonies was examined to determine a minimum fungicidal concentration MFC100). A minimum fungicidal concentration (MFC100) for Malassezia restricta (IFM55992) was determined in the same method as in Test Example 11 except that the hydrate crystal (Production Example 2) was used as the compound under test.

Cc1ccc(-c2nc(C#N)[nH]c2Cl)cc1Cl [Anhydrous crystal, 5-chloro-4-(3-chloro-4-methylphenyl)-1H-imidazole-2-carbonitrile]
MIC [1]: 5 µg/mL (≈ 19.8 µM)
MFC ([2]; treatment time 1 hour): 50 µg/mL (≈ 198 µM)
MFC ([2]; treatment time 48 hours): 10 µg/mL (≈ 39.7 µM)
MFC ([2]; treatment time 72 hours): 5 µg/mL (≈ 19.8 µM)
MFC [3]: 50 µg/mL (≈ 198 µM)
MFC [4]: 50 µg/mL (≈ 198 µM)
MFC [5]: 50 µg/mL (≈ 198 µM)
MFC [6]: 200 µg/mL (≈ 793 µM)
